This is an account of results in US10736902B2, “Method of treating triple negative breast cancer” (GEISTLICH PHARMA AG, priority 2016, dated 2020).

Where two headings read alike, the source gives them in different places.

The subject of data set [1] is ER negative breast cancer cells (BT-20 and MDA-MB-231) and ER positive cells (BT-474 and MCF-7). Nature of the data set: Apoptosis/necrosis (annexin V / propidium iodide) and ROS in breast cancer cells. The class given is cell-based. Conditions: for dose dependence of cell death: ER-positive and ER-negative breast cancer cells, increasing concentrations, most pronounced with TNBC cells; for generation of ROS: substantially reduced by NAC, significantly increased with BSO. The method, then:
Methods: Primary and metastatic ER negative breast cancer cells (BT-20 and MDA-MB-231) and ER positive cells (BT-474 and MCF-7) were separately treated with increasing concentrations of Taurolidine and 2250 as shown in FIG. 7A and FIG. 8A. Apoptosis and necrosis were evaluated based on phosphatidylserine externalization using annexin V and propidium iodide (PI). The contribution of caspases 3, 8 and 9 on apoptosis, and autophagy was evaluated by both flow cytometry and western blotting. The impact of reactive oxygen species (ROS) was evaluated using the radical scavenger agent n-acetylcysteine (NAC) and buthionine-sulfoximine (BSO), a glutathione-depleting agent. Necroptosis was evaluated using nescrostatin-1, a potent inhibitor of the process.

In data set [2] the test system is human peripheral blood monocytes. Nature of the data set: Safety in non-neoplastic cells: cell death of monocytes. It counts as cell-based. Conditions: for cell death in human peripheral blood monocytes: 100 microMol up to 5000 microMol; for effect on peripherally derived human monocytes: high doses (5 mM), after 24 hours (FIG. 7B).
Data set [3] can be described thus: Half-life in human fresh blood at 37° C. The class given is in vitro ADME. Conditions: for half-life: human, fresh whole blood. How it is done:
The half-life of 2250 was measured in human fresh blood at 37° C.

The next data set deals with tumor stem cells. The data set can be described thus: Tumor stem cell killing in tissue culture in vitro. The class given is cell-based.
The nature of data set [4]: Water solubility / isotonicity. It counts as physicochemical.
Data set [5] is described as follows: Wound healing after administration during or after surgery. Conditions: administered during surgery and immediately after surgery.

In the case of `O=S1(=O)CCN(CN2CCS(=O)(=O)NC2)CN1` [taurolidine, reference compound], in data set [1], the “dose dependence of cell death” value is “Dose-dependent increases in cell death” and the “generation of ROS” value is given as “induced generation of ROS”. Moreover, in data set [2], the “cell death in human peripheral blood monocytes” value was “did not induce any significant cell death” and the “effect on peripherally derived human monocytes” value is on record as “no significant effect”. The half-life in data set [3] (human blood, same test, read-out: half-life in human blood) was approximately 0.5 h. Further, in the data set on tumor stem cells, the “killing of tumor stem cells” value is recorded as “kill tumor stem cells”. Further, the “concentration effective at killing tumor stem cells” value in the data set with tumor stem cells (tissue culture in vitro) was determined as 0.01 µg/mL.

Take `O=S1(=O)CCNCN1` [taurultam]: the “killing of tumor stem cells” value in the data set with tumor stem cells is “kill tumor stem cells”.

Regarding `O=S1(=O)CCOCN1` [C-2250, Tetrahydro1,4,5-oxathiazin-4-dioxide], the “dose dependence of cell death” value in data set [1] is “Dose-dependent increases in cell death”. In data set [1], the “generation of ROS” value was “induced generation of ROS”. Further, the “cell death in human peripheral blood monocytes” value in data set [2] is on record as “did not induce any significant cell death”. Besides, the “effect on peripherally derived human monocytes” value in data set [2] is “no significant effect”. For the same compound, the “Concentration of 2250 measured” value amounted to 50 ppm in data set [3] (human fresh blood, 37° C., 0-1 hours) and 47.7 ppm in data set [3] (human fresh blood, 37° C., 2 hours). Further, the half-life was more than 24 h in data set [3] (human blood, read-out: half-life in human blood) and approximately 40 h in data set [3] (human fresh blood, 37° C., calculated from measured concentrations, read-out: half-life (calculated) (converted)). Besides, in data set [4] (no PVP necessary), the solubility in water entry is reported as “very soluble in water”. For the same compound, the “concentration of isotonic solution” value in data set [4] (solution) is 3.2%. Further, the “effect on wound healing” value in data set [5] was “do not hinder wound healing”.
